Experimental data from patent publication US12533362B2, “Methods for treating diseases associated with ciliopathies” (ALEXION PHARMACEUTICALS, INC., priority 2017, dated 2026).

Assays:
zebrafish NPHP4 MO = assay: zebrafish NPHP4 morpholino (MO) model; format: in vivo
Method: Briefly, wild-type Tg(wt1b:GFP) transgenic zebrafish embryos were injected with morpholino (e.g., nphp4 ATG MO) at one-cell stage. At 8 hours post-fertilization (hpf), injected embryos were treated with drug or vehicle in PTU-egg water (1 mL in 12-well plates). At 24 hpf, drug treatment was renewed, and pronase was added at 36 hpf for chorion removal.

EP4 = EP4 (Mus musculus, UniProt P32240); conditions: cited from earlier work
Sequence of EP4 (P32240 whole entry): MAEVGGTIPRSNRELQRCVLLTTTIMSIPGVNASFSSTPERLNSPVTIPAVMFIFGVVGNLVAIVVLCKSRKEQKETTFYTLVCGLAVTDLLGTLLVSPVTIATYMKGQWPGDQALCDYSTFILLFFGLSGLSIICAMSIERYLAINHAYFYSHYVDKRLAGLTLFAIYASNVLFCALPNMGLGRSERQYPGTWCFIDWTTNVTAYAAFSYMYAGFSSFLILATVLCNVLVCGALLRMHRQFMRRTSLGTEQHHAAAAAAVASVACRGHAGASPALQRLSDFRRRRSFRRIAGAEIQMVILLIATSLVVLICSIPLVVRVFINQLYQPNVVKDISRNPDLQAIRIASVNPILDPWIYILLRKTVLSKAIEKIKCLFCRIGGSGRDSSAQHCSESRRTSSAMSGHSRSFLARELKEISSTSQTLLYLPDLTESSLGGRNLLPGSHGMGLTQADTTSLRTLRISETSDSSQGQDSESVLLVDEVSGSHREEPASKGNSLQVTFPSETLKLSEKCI

[1] = system: NPHP patient-derived cells; assay: automated cilia-based ciliogenesis assay in NPHP patient-derived cells; format: cell-based, human
Text: (§1) To identify compounds for treating diseases associated with ciliopathies such as, for example, NPHP, NPHP patient-derived cells were obtained and cell lines were established. Briefly, peeled renal epithelial cells, which are mostly proximal tubule cells (tbc) recovered from urine of NPHP1-deficient patients, were immortalized by retroviral gene transfer of SV40 T antigen. Cells were fixed and fluorescence-labeled with Hoechst (for nuclei staining), anti-γ-tubulin antibody (for basal bodies staining), and anti-ARL13B antibody (for cilia staining) for detection using immunofluorescence microscopy.
(§2) Briefly, NPHP patient-derived cells and control cells were cultured in complete media, at 39C (non-permissive temperature for SV40 expression), followed by automatic cilia analysis using immunofluorescence microscopy to measure ciliogenesis, e.g., in terms of % cilia. A spinning disk platform may be used for drug screening (FIG. 5, A-J) and ciliogenesis analysis of G3 multi-OMICs dataset (FIG. 29, A-E).
(§3) The cilia-based assay described above may be used to identify compounds that restore ciliogenesis. […] Automated random acquisition of 35 images per well may be performed, for example. Each image may have z-stack of 10 images taken at <1 μm intervals.

URECs = assay: microarray differential expression analysis of URECs; format: cell-based, human; conditions: for top regulated genes signaling pathway, microarray: DMSO vs 0.2 μM, 2 μM and 10 μM
Method: Microarray analysis was performed to identify expressed genes responsible for the alprostadil-mediated restoration of ciliogenesis.

EP1 = biological target: T1, EP1 (Mus musculus, UniProt P35375); conditions: cited from earlier work
T1 sequence (P35375 1-405): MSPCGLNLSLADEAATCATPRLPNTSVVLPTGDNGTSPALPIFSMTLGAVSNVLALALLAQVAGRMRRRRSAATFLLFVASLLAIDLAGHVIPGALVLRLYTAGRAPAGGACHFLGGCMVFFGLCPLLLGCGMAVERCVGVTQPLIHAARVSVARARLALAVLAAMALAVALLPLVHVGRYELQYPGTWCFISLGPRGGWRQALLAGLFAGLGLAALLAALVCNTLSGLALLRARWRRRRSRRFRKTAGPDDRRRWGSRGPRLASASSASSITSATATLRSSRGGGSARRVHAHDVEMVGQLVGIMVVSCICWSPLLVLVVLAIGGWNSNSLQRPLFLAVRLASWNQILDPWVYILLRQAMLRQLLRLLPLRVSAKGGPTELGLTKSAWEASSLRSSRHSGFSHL

EP2 = EP2 (Mus musculus, UniProt Q62053); conditions: cited from earlier work
Sequence of EP2 (Q62053 whole entry): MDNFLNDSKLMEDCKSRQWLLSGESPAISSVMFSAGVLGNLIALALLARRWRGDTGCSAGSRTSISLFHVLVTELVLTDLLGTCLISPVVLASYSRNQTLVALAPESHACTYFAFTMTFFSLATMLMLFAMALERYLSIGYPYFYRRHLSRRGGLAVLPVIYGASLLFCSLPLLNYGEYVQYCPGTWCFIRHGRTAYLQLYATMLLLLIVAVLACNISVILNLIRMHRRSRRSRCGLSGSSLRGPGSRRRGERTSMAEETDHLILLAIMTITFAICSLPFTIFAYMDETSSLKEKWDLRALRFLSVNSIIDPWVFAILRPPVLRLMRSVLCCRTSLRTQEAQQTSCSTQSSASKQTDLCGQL

[2] = system: control normal epithelial cells; assay: automated cilia-based ciliogenesis assay in control normal epithelial cells; format: cell-based, human
Text: as §1, §2
as §3, with “intervals. Consecutive imaging of nucleus (Hoechst at 461 nm), basal body (γ-tubulin at 555 nm) and cilia (ARL13b at 647 nm) may be obtained.” for “intervals.”

EP3 = biological target: T2, EP3 (Mus musculus, UniProt P30557); conditions: cited from earlier work
T2 sequence (P30557 1-365): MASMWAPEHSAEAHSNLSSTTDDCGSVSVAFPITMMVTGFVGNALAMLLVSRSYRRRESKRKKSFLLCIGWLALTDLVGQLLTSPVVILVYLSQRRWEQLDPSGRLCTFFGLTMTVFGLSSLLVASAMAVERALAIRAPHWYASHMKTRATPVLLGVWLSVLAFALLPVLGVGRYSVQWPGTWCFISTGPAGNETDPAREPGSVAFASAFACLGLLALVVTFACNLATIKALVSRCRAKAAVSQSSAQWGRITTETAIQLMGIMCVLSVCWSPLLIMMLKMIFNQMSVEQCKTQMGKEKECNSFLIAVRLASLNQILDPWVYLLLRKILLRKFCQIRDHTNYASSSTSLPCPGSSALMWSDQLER

[3] = meta-analysis, multiple NPHP patient-derived cell lines

CCCCC[C@H](O)/C=C/[C@H]1[C@H](O)CC(=O)[C@@H]1CCCCCCC(=O)O [alprostadil, prostaglandin E1]
dorsal curvature (automated quantified parameter) (zebrafish NPHP4 MO; 0.5 μM and 5 μM vs DMSO): did not significantly affect dorsal curvature | body axis curvature (normal, class I, class II, class III) (zebrafish NPHP4 MO; 0.5 μM and 5 μM vs DMSO, p>0.05 Fischer's exact test): did not significantly affect body axis curvature | percentage of severe pronephric cysts (zebrafish NPHP4 MO; 0.5 μM vs DMSO, p<0.05 Fischer's exact test): significantly reduced the percentage of severe pronephric cysts | percentage of severe pronephric cysts (zebrafish NPHP4 MO; 5 μM vs DMSO): significantly reduced the percentage of severe pronephric cysts | IC50 (EP4): 2.1 nM | ciliogenesis rate ([1]; 2 μM vs DMSO, NPHP1(del) cell lines PT1, 1-03-P, 1-06-P1, 1-06-P2, 1-09-P, 1-10-P, 1-12-P, FIG. 11B): significantly increases ciliogenesis rate | % ciliated cells, dose response ([1]; alprostadil titration from 1 nM to 2 μM and from 100 pM to 2 μM, FIG. 7): significantly increases % ciliated cells in a dose-dependent manner | effect on ciliogenesis (percentage of ciliated cells) as compared with DMSO ([1]; drug screening, various tested concentrations, FIG. 5 / FIG. 6): significantly restored ciliogenesis | % ciliated cells, multi-omics phenotypic analysis ([1]; five independent experiments, FIGS. 26A-26E): partially restores ciliogenesis | increase in the effect on ciliogenesis in NPHP patient-derived cells versus control (DMSO 0.04%) ([1]; meta-analysis, FIG. 8C): about two-fold | linear regression pooled slope value of effect on ciliogenesis [1, 3]: 1.414 | linear regression range of slope values of effect on ciliogenesis [1, 3]: 1.333 to 1.506 | ciliogenesis, meta-analysis ([1]; vs DMSO 0.04%, PT1 cells, FIG. 8B): significantly increases ciliogenesis | top regulated genes signaling pathway, microarray (URECs; Qiazol extraction): down-regulation of cell adhesion and extracellular matrix, and up-regulation of interferon signaling | top regulated genes signaling pathway, microarray (URECs; RLT extraction): down-regulation of cell adhesion and extracellular matrix | alteration in gene expression in NPHP patient-derived cells compared to control cells (URECs; pathway analysis crossing microarray data with RNAseq of control vs patient): could reverse alteration in gene expression | IC50 (EP1): 36 nM | IC50 (EP2): 10 nM | ciliogenesis, meta-analysis ([2]; 2 μM vs DMSO 0.04%, CTRL cells, FIG. 8A): does not significantly affect ciliogenesis | ciliogenesis rate ([2]; 2 μM vs DMSO, normal control cells, FIG. 11B): no significant effect on ciliogenesis rate | IC50 (EP3): 1.1 nM
